From patent US10758524B2, “Compositions and methods for selectively depleting senescent cells” (BioVentures, LLC, priority 2014, dated 2020)

Legend:
Type in all cases: cell-based
Normal WI38 cells = test: Cell viability of normal WI38 cells at 72 h (LD50); settings: for CC50: Homo sapiens, WI-38, 72 h, read-out: LD50 non-senescent cells (NSC); for LD50 (normal): normal WI38 cells, Table 1
Protocol: (§1) Normal WI38 cells (FIG. 1A), IR-induced senescent cells (FIG. 1B) and replicative senescent cells (FIG. 1C) were incubated with increasing concentrations of PL. At 72 hours post-treatment cell viability was measured. […] IR-induced senescent WI38 cells were treated with 10 μM PL and viable cells were measured at 0, 1, 2, 3, 6, 12, 16, 24, 48 and 72 hours after treatment (FIG. 1D) or the cells were incubated with 10 μM PL for 1, 3, 6, 12, 24, 48 or 72 hours and cell viability was measured at 72 h (FIG. 1E).
(§2) At 72 hours post-treatment cell viability was measured.
(§3) Normal WI38 cells and IR-induced senescent cells were incubated with increasing concentrations of compounds of Formula I and Formula II. At 72 hours post-treatment cell viability was measured and LD50 was calculated.

[1] = test system: IR-induced senescent WI38 cells; test: Cell viability of IR-induced senescent WI38 cells at 72 h (LD50); settings: for IC50: Homo sapiens, WI-38, 72 h, read-out: LD50 IR-senescent cells (SC); for Ratio (NSC/SC) / Ratio (normal/senescent): ratio of LD50 values; for Ratio (NSC/SC): Table 2; for LD50 (IR-senescent): IR-induced senescent WI38 cells; for LD50 (IR-senescent) / Ratio (normal/senescent): Table 1
Protocol: as §1, §2, §3

[2] = test system: replicative senescent WI38 cells; test: Cell viability of replicative senescent WI38 cells at 72 h (LD50)
Protocol: as §1

[3] = test system: IR-induced senescent WI38 cells; test: Reactive oxygen species (ROS) measurement after PL treatment; settings: 10 μM PL, at 24 hours
Protocol: PL selectively increases ROS in senescent WI38 in a time-dependent manner. Normal (FIG. 2A) and IR-induced senescent WI38 cells (FIG. 2B) were incubated with vehicle (Veh), […] H2O2 for 30 min as a positive control, or 10 μM PL. Reactive oxygen species (ROS) was measured at various times (1, 3, 6, 12, 24 hours) after PL treatment and expressed as percent of control. Data are presented as mean±SE of three independent assays.

| SMILES | CC50 (Normal WI38 cells) [µM] | IC50 [1] [µM] | Ratio (NSC/SC) [1] | also measured |
| --- | --- | --- | --- | --- |
| O=C(C#Cc1ccccc1)N1CCC=CC1=O [XZ 12040] | 5.78 | 2.4 | 2.41 | – |
| COc1cc(/C=C(\C#N)C(=O)N2CCC=CC2=O)cc(OC)c1OC [XZ-12052] | 80 | 41 | 1.95 | – |
| COc1cc(/C=C(\Br)C(=O)N2CCC=CC2=O)c(Br)c(OC)c1OC [GZ-11734] | 7.16 | 1.39 | 5.14 | – |
| COc1cc(/C=C/C(=O)N2CCCCCC2=O)cc(OC)c1OC [XL-11178A] | > 40 | > 40 | – | – |
| CCCCS(=N)(=O)CCC(N)C(=O)O (stereo not drawn) [Buthionine sulfoximine, reference compound] | – | – | – | LD50 (normal) (Normal WI38 cells): 2340.19 µM; LD50 (IR-senescent) [1]: 2391.51 µM; Ratio (normal/senescent) [1]: 1.0 |
| COc1cc(C#CC(=O)N2CCC=CC2=O)cc(OC)c1OC [XZ-12045] | 13.9 | 4.38 | 3.18 | – |
| CC(=O)N[C@@H](CS)C(=O)O [NAC, N-Acetyl-Cysteine, reference compound] | – | – | – | effect on PL induced cell death ([1]; pre-treatment 2 hours (NAC 1 mM; Q-VD-OPh 20 μM), then 10 μM PL 72 h): selectively inhibited PL induced cell death |
| CCCCCCCCCC[P+](c1ccccc1)(c1ccccc1)c1ccccc1 [Decyl-triphenylphosphonium, reference compound] | – | – | – | LD50 (normal) (Normal WI38 cells): 1.41 µM; LD50 (IR-senescent) [1]: 0.98 µM; Ratio (normal/senescent) [1]: 1.4 |
| COc1cc(/C=C/C(=O)N2CCC=CC2=O)cc(OC)c1OCCN(C)C [XL-11194] | 10.3 | 4.02 | 2.56 | – |
| COc1cc(/C=C/C(=O)N2CCC=CC2=O)cc(OC)c1OCCN(C)CCOc1c(OC)cc(/C=C/C(=O)N2CCC=CC2=O)cc1OC [GZ-11719] | 1.62 | 0.9 | 1.80 | – |
| O=C1C=CCCN1C(=O)/C=C/c1ccccc1C(F)(F)F [XZ-12047] | 21.9 | 10.8 | 2.03 | – |
| COc1cc(/C=C/C(=O)N2CCC=CC2=O)cc(OC)c1OC [PL, 5,6-dihydro-1-[(2E)-1-oxo-3-(3,4,5-trimethoxyphenyl)-2-propenyl]-2(1H)-pyridinone, reference compound] | – | – | – | effect on cell viability (Normal WI38 cells; PL up to 10 μM, 72 hours): no significant effect; LD50 (normal) (Normal WI38 cells): 24.25 µM; viable cells over time ([1]; 10 μM PL, from 6 hours on, both treatment scenarios): significant reduction in viable cells; LD50 (IR-senescent) [1]: 7.05 µM; effect on number of viable cells ([1]; PL as low as 5 μM, 72 hours): significantly reduced the number of viable cells; Ratio (normal/senescent) [1]: 3.44-3.82; effect on number of viable cells ([2]; PL as low as 5 μM, 72 hours): significantly reduced the number of viable cells; LD50 (Replicative) ([2]; replicative senescent WI38 cells, Table 1): 6.35 µM; ROS production [3]: significantly increased ROS production |
| C=C1CCCN(S(=O)(=O)/C=C/c2ccccc2)C1=O [XZ-12107] | 24 | 4.77 | 5.02 | – |
| CCCOc1c(OC)cc(/C=C/C(=O)N2CCC=CC2=O)cc1OC [GZ-11719-by] | 84.7 | 47.1 | 1.80 | – |
| CC(=O)OC[C@H]1O[C@@H]([S-])[C@H](OC(C)=O)[C@@H](OC(C)=O)[C@@H]1OC(C)=O.CCP(CC)CC.[Au+] [Auranofin, reference compound] | – | – | – | LD50 (normal) (Normal WI38 cells): 5.13 µM; LD50 (IR-senescent) [1]: 5.34 µM; Ratio (normal/senescent) [1]: 1.0 |
